Results from patent US8318792B2, “Therapeutic agent for amyotrophic lateral sclerosis” (Nippon Medical School Foundation, priority 2006, dated 2012).

What was measured:
Type in all cases: in vivo, mouse
[1] = tested on: G1H-G93A transgenic mice; test: Exercise tolerance test: inclined plane test; conditions: for Inclined plane test score: 5 mg/kg oral daily from 80th day (before onset), score 0-3, 5 mg/kg
Description: (§1) The following five kinds of exercise tolerance tests were conducted every fifth day from the 70th day after birth to evaluate the ability to exercise in the respective exercise tolerance tests. That is, the days for the exercise tolerance tests were every fifth days, such as the 70th day, 75th day, 80th day, 85th day and so on, after birth. The exercise tolerance tests were conducted throughout the survival period, and the post-mortem evaluation was based on the definitions of the following five kinds of exercise tolerance tests.
The apparatus used in the inclined plane test is an apparatus allowing a wooden board to be fixed at the respective angles of 45°, 65° and 80° from a horizontal plane. A mouse is placed in the posture of head-up position on the wooden board inclined at each angle and the mouse is allowed to maintain this position for 5 seconds without falling downward. In the evaluation method of the inclined plane test for each mouse, the number of seconds (TA seconds: 5 seconds or less) during which the position could be maintained without falling downward is measured at each of the angles (A) of 45°, 65° and 80°, and then the total sum value of the products of the angle (A) and the number of seconds (TA) during which the position could be maintained: Σ [Angle(A)×Time (TA)] is calculated. Since a normal mouse is capable of maintaining the position on the wooden board inclined to the respective angles for 5 seconds, the sum value of Σ [Angle(A)×Time (TA)] will be 80×5+65×5+45×5=950. The evaluation of the inclined plane test for the mouse was performed based on the following criteria: Score 0=950; Score 1=over 550 to less than 950; Score 2=over 225 to 550; and Score 3=225 and below. The post-mortem evaluation of the inclined plane test is defined as score 3.

[2] = tested on: G1H-G93A transgenic mice; test: Exercise tolerance test: rotarod test; conditions: for Rotarod test score: 5 mg/kg oral daily from 80th day (before onset), score 0-3
Description: as §1
The apparatus used in the Rotarod test (Rota Rod Treadmill type 7600, Ugo Basile Co., Milano, Italy) is a rotating axle having a diameter of 3.6 cm, and this rotating axle is set up so as to have 16 revolution per minute (one rotation: 3.75 seconds). The period for which a mouse can remain on a rotating axle without falling is measured. The evaluation of the rotarod test for the mouse was performed based on the following criteria: Score 0=The time exceeds 60 seconds; Score 1=The time is more than 30 seconds and 60 seconds or less; Score 2=The time is more than 4 seconds and 30 seconds or less; and Score 3=The time is 4 seconds or less. The post-mortem evaluation of the rotarod test is defined as score 3.

[3] = tested on: G1H-G93A transgenic mice; test: Exercise tolerance test: footprint test; conditions: 5 mg/kg oral daily from 80th day (before onset), score 0-4
Description: as §1
Both hindlimbs of a mouse are dipped in a black ink bottle, and then the mouse is allowed to walk on white paper. The footprints of the two hindlimbs of the mouse after the walking are analyzed. […] The post-mortem evaluation of the footprint test is defined as score 4.

[4] = tested on: G1H-G93A transgenic mice; test: Exercise tolerance test: beam balance test; conditions: 5 mg/kg oral daily from 80th day (before onset), score 0-2
Description: as §1
The apparatus used in the beam balance test is constructed by maintaining a wooden beam having a diameter of 1.5 cm horizontally, and installing platforms which serve as footholds, on the respective sides in a distance of 30 cm. A mouse is placed on the platform on one side, and the time taken by the mouse to cross over the beam which is 30 cm in length and to arrive at the platform on the opposite side is measured. The evaluation of the beam balance test for the mouse was performed based on the following criteria: Score 0=The time is 10 seconds or less; Score 1=The time is more than 10 seconds to 15 seconds; and Score 2=The time is more than 15 seconds, or the mouse falls down. The post-mortem evaluation of the beam balance test is defined as score 2.

[5] = from the 130th day to 140th day after birth

CC(C)(C)COc1ccc(-n2cc(C(=O)O)cn2)cc1C#N [compound (a), 1-[3-cyano-4-(2,2-dimethylpropoxy)phenyl]-1H-pyrazole-4-carboxylic acid]
Inclined plane test score ([1]; 70th day after birth): 0.0±0.0 | Inclined plane test score ([1]; 75th day after birth): 0.0±0.0 | Inclined plane test score ([1]; 80th day after birth): 0.0±0.0 | Inclined plane test score ([1]; 85th day after birth): 0.0±0.0 | Inclined plane test score ([1]; 90th day after birth): 0.0±0.0 | Inclined plane test score ([1]; 95th day after birth): 0.0±0.0 | Inclined plane test score ([1]; 100th day after birth): 0.0±0.0 | Inclined plane test score ([1]; 105th day after birth): 0.0±0.0 | Inclined plane test score ([1]; 110th day after birth): 0.0±0.0 | effect in inclined plane test as compared to placebo group ([1]; 110th, 115th, 120th, 125th and 130th day, 5 mg/kg oral daily from 80th day after birth, Mann-Whitney's U test): significant effects | Inclined plane test score ([1]; 115th day after birth): 0.1±0.3 | Inclined plane test score ([1]; 120th day after birth): 0.4±0.5 | Inclined plane test score ([1]; 125th day after birth): 1.1±0.9 | Inclined plane test score ([1]; 130th day after birth): 2.1±0.9 | Inclined plane test score ([1]; 135th day after birth): 2.7±0.5 | Inclined plane test score ([1]; 140th day after birth): 3.0±0.0 | Rotarod test score ([2]; 70th day after birth, 5 mg/kg): 0.0±0.0 | Rotarod test score ([2]; 75th day after birth, 5 mg/kg): 0.0±0.0 | Rotarod test score ([2]; 80th day after birth, 5 mg/kg): 0.0±0.0 | Rotarod test score ([2]; 85th day after birth, 5 mg/kg): 0.0±0.0 | Rotarod test score ([2]; 90th day after birth, 5 mg/kg): 0.0±0.0 | Rotarod test score ([2]; 95th day after birth, 5 mg/kg): 0.0±0.0 | Rotarod test score ([2]; 100th day after birth, 5 mg/kg): 0.0±0.0 | Rotarod test score ([2]; 105th day after birth, 5 mg/kg): 0.0±0.0 | effect in rotarod test as compared to placebo group ([2]; 105th, 110th and 115th day, 5 mg/kg oral daily from 80th day after birth, Mann-Whitney's U test): significant effects | Rotarod test score ([2]; 110th day after birth, 5 mg/kg): 0.3±0.7 | Rotarod test score ([2]; 115th day after birth, 5 mg/kg): 1.2±1.3 | Rotarod test score ([2]; 120th day after birth, 5 mg/kg): 2.2±0.9 | Rotarod test score ([2]; 125th day after birth, 5 mg/kg): 2.7±0.5 | Rotarod test score ([2]; 130th day after birth): 3.0 ± 0.0 | Rotarod test score ([2]; 135th day after birth): 3.0 ± 0.0 | Rotarod test score ([2]; 140th day after birth): 3.0 ± 0.0 | Rotarod test score [2, 5]: 3.0±0.0 | Footprint test score ([3]; 70th day after birth): 0.0±0.0 | Footprint test score ([3]; 75th day after birth): 0.0±0.0 | Footprint test score ([3]; 80th day after birth): 0.0±0.0 | Footprint test score ([3]; 85th day after birth): 0.0±0.0 | Footprint test score ([3]; 90th day after birth): 0.0±0.0 | Footprint test score ([3]; 95th day after birth): 0.0±0.0 | Footprint test score ([3]; 100th day after birth): 0.0±0.0 | Footprint test score ([3]; 105th day after birth): 0.0±0.0 | Footprint test score ([3]; 110th day after birth): 0.1±0.3 | Footprint test score ([3]; 115th day after birth): 0.6±0.7 | Footprint test score ([3]; 120th day after birth): 1.8±0.9 | Footprint test score ([3]; 125th day after birth): 2.8±0.4 | Footprint test score ([3]; 130th day after birth): 3.4±0.5 | Footprint test score ([3]; 135th day after birth): 3.9±0.3 | Footprint test score ([3]; 140th day after birth): 4.0±0.0 | Beam balance test score ([4]; 70th day after birth, 5 mg/kg): 0.0±0.0 | Beam balance test score ([4]; 75th day after birth, 5 mg/kg): 0.0±0.0 | Beam balance test score ([4]; 80th day after birth, 5 mg/kg): 0.0±0.0 | Beam balance test score ([4]; 85th day after birth, 5 mg/kg): 0.0±0.0 | Beam balance test score ([4]; 90th day after birth, 5 mg/kg): 0.0±0.0 | Beam balance test score ([4]; 95th day after birth, 5 mg/kg): 0.0±0.0 | Beam balance test score ([4]; 100th day after birth, 5 mg/kg): 0.0±0.0 | Beam balance test score ([4]; 105th day after birth, 5 mg/kg): 0.0±0.0 | Beam balance test score ([4]; 110th day after birth, 5 mg/kg): 0.1±0.3 | Beam balance test score ([4]; 115th day after birth, 5 mg/kg): 0.7±0.8 | Beam balance test score ([4]; 120th day after birth, 5 mg/kg): 1.2±0.9 | Beam balance test score ([4]; 125th day after birth, 5 mg/kg): 1.7±0.5 | Beam balance test score ([4]; 130th day after birth): 2.0 ± 0.0 | Beam balance test score ([4]; 135th day after birth): 2.0 ± 0.0 | Beam balance test score ([4]; 140th day after birth): 2.0 ± 0.0 | Beam balance test score [4, 5]: 2.0±0.0
